{
  "source": "paper PMC8011197",
  "about": "“A polo-like kinase modulates cytokinesis and flagella biogenesis in Giardia lamblia” (Parasites & Vectors, 2021)",
  "assay_type_in_all_cases": "cell-based",
  "key": {"[1]": {"tested_on": "Giardia lamblia trophozoites", "assay": "DNA content / cell cycle phase by flow cytometry (PI)", "experimental": "Both the GW-treated and control G. lamblia cells were analyzed for their DNA content using flow cytometry. Briefly, the harvested cells were resuspended in 50 μl TYI-S-33 culture medium and treated with 150 μl of a cell fixative (1% Triton X-100, 40 mM citric acid, 20 mM dibasic sodium phosphate, 200 mM sucrose; pH 3.0) at room temperature for 5 min. The samples were diluted with 350 μl of diluent buffer [125 mM MgCl2 in phosphate-buffered saline (PBS: 137 mM NaCl, 2.7 mM KCl, 10.1 mM Na2HPO4 and 2 mM KH2PO4, pH 7.4)] and then stored at 4 °C until use. Fixed cells were treated with 2.5 μg RNase A (Sigma-Aldrich) and 10 μg/ml propidium iodide (PI; Sigma-Aldrich) for 30 min at 37 °C. […] Along representative histograms, averages of three independent experiments were presented in bar graphs.\nExpression of GlPLK was knocked down using a morpholino, as described previously. A specific morpholino for GlPLK was designed by Gene Tools (Philomath, OR, USA) (see Table 1 for sequences). Nonspecific oligomers were used as a control morpholino (Table 1). Cells (5 × 10^6 in 0.3 ml medium) were treated with the lyophilized morpholino at a final concentration of 100 nM. After electroporation, the cells were grown for various lengths of time, ranging from 12 to 48 h, and analyzed for GlPLK inhibition by western blotting using anti-HA and anti-GlPLK antibodies. The cells at 18 h post-transfection were analyzed for their nuclear phenotypes, including the number and position of nuclei and condensation and flagella length, as described above. In addition, cells transfected with control or anti-glplk morpholino were harvested at 6 or 18 h, and then evaluated with respect to their DNA content by flow cytometry followed by analysis using FlowJo software (FlowJo Llc). […]\nThese cells were then analyzed by flow cytometry to determine the ploidy of their DNA. Intracellular levels of GlPLK protein in the DMSO-treated, nocodazole-treated and nocodazole/aphidicolin-treated Giardia cells were determined by western blotting. The intracellular levels of glplk transcripts were also measured in these cells."}, "[2]": {"tested_on": "Giardia lamblia trophozoites", "assay": "Nuclear phenotype (number, position, condensation of nuclei) of Giemsa-stained cells", "details": "for Percentage of cells, 1N / Percentage of cells, 2N, abnormal / Percentage of cells, 2N, normal / Percentage of cells, 3N / Percentage of cells, 4N / Percentage of cells, >4N: 5 µM GW", "experimental": "For the microscopic observation of cells, the cells were attached to slides, air-dried and fixed with 100% methanol for 10 min, following which they were stained with 10% Giemsa solution for 40 min and washed with distilled water. After mounting with dibutyl phthalate xylene (Sigma-Aldrich, St. Louis, MO, USA), the slides were observed under an Axiovert 200 microscope (Carl Zeiss AG, Oberkochen, Germany). For each condition, at least 300 cells were examined to determine the number and position of the nuclei. Among cells with two nuclei in normal positions, the number of cells showing nuclei condensation was also recorded. Data are presented as the mean ± standard deviation (SD) of three independent experiments. […]"}, "[3]": {"tested_on": "Giardia lamblia trophozoites", "assay": "Growth inhibition of Giardia trophozoites, hemocytometer count after 24 h", "details": "Giardia duodenalis, GW 5–15 μM, 2 × 10^4 cells/ml, read-out: IC50, inhibition of growth of G. lamblia", "experimental": "After treatment for 24 h, the number of parasites per milliliter was determined using a hemocytometer. Giardia trophozoites treated with 0.3% dimethyl sulfoxide (DMSO) were used as controls."}, "[4]": {"tested_on": "Giardia lamblia trophozoites", "assay": "Flagella length of Giemsa-stained cells (DIC images, Fiji/ImageJ)", "details": "5 µM GW", "from_the_text": "To measure flagella length, we observed Giemsa-stained cells under an Axiovert 200 microscope and analyzed their differential interference contrast (DIC) images using Fiji, an open-source platform for biological-image analysis. Each of four types of flagella were divided into cytoplasmic and membrane-bound categories and then measured using the line Freehand Tracing 0mode in ImageJ software (http://imagej.nih.gov/ij/). […] Data are presented as the mean ± SD of three independent experiments.\nExpression of GlPLK was knocked down using a morpholino, as described previously. A specific morpholino for GlPLK was designed by Gene Tools (Philomath, OR, USA) (see Table 1 for sequences). Nonspecific oligomers were used as a control morpholino (Table 1). Cells (5 × 10^6 in 0.3 ml medium) were treated with the lyophilized morpholino at a final concentration of 100 nM. After electroporation, the cells were grown for various lengths of time, ranging from 12 to 48 h, and analyzed for GlPLK inhibition by western blotting using anti-HA and anti-GlPLK antibodies. The cells at 18 h post-transfection were analyzed for their nuclear phenotypes, including the number and position of nuclei and condensation and flagella length, as described above. In addition, cells transfected with control or anti-glplk morpholino were harvested at 6 or 18 h, and then evaluated with respect to their DNA content by flow cytometry followed by analysis using FlowJo software (FlowJo Llc). Transfection was performed at least five times, and the data presented were derived from three independent knockdown experiments."}},
  "data": [
    {"smiles": "C[C@@]1(CO)[C@H](O)CC[C@@]2(C)[C@H]1CC[C@H]1C[C@@H]3C[C@@]12CC[C@]3(O)CO", "note": "[aphidicolin]", "values": [
      {"measurement": "Percentage of G1/S-arrested cells after synchronization", "setting": "[1]; sequentially 100 nM nocodazole, then 6 μM aphidicolin 6 h, Giardia carrying pGlPLK.neo", "value": 86, "unit": "%"}
    ]},
    {"smiles": "COC(=O)Nc1nc2ccc(C(=O)c3cccs3)cc2[nH]1", "note": "[nocodazole]", "values": [
      {"measurement": "Percentage of G2/M-phase cells after synchronization", "setting": "[1]; 100 nM nocodazole, Giardia carrying pGlPLK.neo, 0.01% DMSO control 78%", "value": 91, "unit": "%"}
    ]},
    {"smiles": "COc1cc2ncn(-c3cc(OCc4ccccc4C(F)(F)F)c(C(N)=O)s3)c2cc1OC", "note": "[GW, GW843682X]", "values": [
      {"measurement": "Percentage of cells, 1N", "setting": "[2]; 3 h", "value": "0.4±0.1", "unit": "%"},
      {"measurement": "Percentage of cells, 2N, abnormal", "setting": "[2]; 3 h", "value": "0.7±0.3", "unit": "%"},
      {"measurement": "Percentage of cells, 2N, normal", "setting": "[2]; 3 h", "value": "97.2±0.8", "unit": "%"},
      {"measurement": "Percentage of cells, 3N", "setting": "[2]; 3 h", "value": "0.2±0.1", "unit": "%"},
      {"measurement": "Percentage of cells, 4N", "setting": "[2]; 3 h", "value": "0.7±0.2", "unit": "%"},
      {"measurement": "Percentage of cells, >4N", "setting": "[2]; 3 h", "value": "0.8±0.3", "unit": "%"},
      {"measurement": "Percentage of cells, 1N", "setting": "[2]; 6 h", "value": "0.3±0.2", "unit": "%"},
      {"measurement": "Percentage of cells, 2N, abnormal", "setting": "[2]; 6 h", "value": "0.8±0.3", "unit": "%"},
      {"measurement": "Percentage of cells, 2N, normal", "setting": "[2]; 6 h", "value": "96.9±0.7", "unit": "%"},
      {"measurement": "Percentage of cells, 3N", "setting": "[2]; 6 h", "value": "0.3±0.1", "unit": "%"},
      {"measurement": "Percentage of cells, 4N", "setting": "[2]; 6 h", "value": "0.8±0.2", "unit": "%"},
      {"measurement": "Percentage of cells, >4N", "setting": "[2]; 6 h", "value": "0.9±0.4", "unit": "%"},
      {"measurement": "Percentage of cells with condensed nuclei", "setting": "[2]; 5 μM GW, 6 h, compared to DMSO-treated cells", "value": "significantly increased"},
      {"measurement": "Percentage of cells, 1N", "setting": "[2]; 9 h", "value": "1.2±0.1", "unit": "%"},
      {"measurement": "Percentage of cells, 2N, abnormal", "setting": "[2]; 9 h", "value": "1.3±0.3", "unit": "%"},
      {"measurement": "Percentage of cells, 2N, normal", "setting": "[2]; 9 h", "value": "91.7±0.1", "unit": "%"},
      {"measurement": "Percentage of cells, 3N", "setting": "[2]; 9 h", "value": "1.3±0.4", "unit": "%"},
      {"measurement": "Percentage of cells, 4N", "setting": "[2]; 9 h", "value": "3.3±0.4", "unit": "%"},
      {"measurement": "Percentage of cells, >4N", "setting": "[2]; 9 h", "value": "1.7±0.3", "unit": "%"},
      {"measurement": "Percentage of cells, 1N", "setting": "[2]; 12 h", "value": "1.2±0.1", "unit": "%"},
      {"measurement": "Percentage of cells, 2N, abnormal", "setting": "[2]; 12 h", "value": "1.4±0.6", "unit": "%"},
      {"measurement": "Percentage of cells, 2N, normal", "setting": "[2]; 12 h", "value": "91.0±1.4", "unit": "%"},
      {"measurement": "Percentage of cells, 3N", "setting": "[2]; 12 h", "value": "1.5±0.4", "unit": "%"},
      {"measurement": "Percentage of cells, 4N", "setting": "[2]; 12 h", "value": "3.1±0.9", "unit": "%"},
      {"measurement": "Percentage of cells, >4N", "setting": "[2]; 12 h", "value": "1.9±0.8", "unit": "%"},
      {"measurement": "Percentage of cells, 1N", "setting": "[2]; 15 h", "value": "1.1±0.2", "unit": "%"},
      {"measurement": "Percentage of cells, 2N, abnormal", "setting": "[2]; 15 h", "value": "1.6±0.5", "unit": "%"},
      {"measurement": "Percentage of cells, 2N, normal", "setting": "[2]; 15 h", "value": "86.1±1.4", "unit": "%"},
      {"measurement": "Percentage of cells, 3N", "setting": "[2]; 15 h", "value": "1.5±0.3", "unit": "%"},
      {"measurement": "Percentage of cells, 4N", "setting": "[2]; 15 h", "value": "6.7±0.5", "unit": "%"},
      {"measurement": "Percentage of cells, >4N", "setting": "[2]; 15 h", "value": "3.1±0.6", "unit": "%"},
      {"measurement": "Percentage of cells, 1N", "setting": "[2]; 18 h", "value": "0.9±0.3", "unit": "%"},
      {"measurement": "Percentage of cells, 2N, abnormal", "setting": "[2]; 18 h", "value": "0.9±0.4", "unit": "%"},
      {"measurement": "Percentage of cells, 2N, normal", "setting": "[2]; 18 h", "value": "88.5±1.2", "unit": "%"},
      {"measurement": "Percentage of cells, 3N", "setting": "[2]; 18 h", "value": "1.6±0.4", "unit": "%"},
      {"measurement": "Percentage of cells, 4N", "setting": "[2]; 18 h", "value": "5.4±0.8", "unit": "%"},
      {"measurement": "Percentage of cells, >4N", "setting": "[2]; 18 h", "value": "2.7±0.5", "unit": "%"},
      {"measurement": "Percentage of cells, 1N", "setting": "[2]; 24 h", "value": "1.2±0.3", "unit": "%"},
      {"measurement": "Percentage of cells, 2N, abnormal", "setting": "[2]; 24 h", "value": "1.6±0.5", "unit": "%"},
      {"measurement": "Percentage of cells, 2N, normal", "setting": "[2]; 24 h", "value": "85.6±0.5", "unit": "%"},
      {"measurement": "Percentage of cells, 3N", "setting": "[2]; 24 h", "value": "2.3±0.2", "unit": "%"},
      {"measurement": "Percentage of cells, 4N", "setting": "[2]; 24 h", "value": "6.1±0.5", "unit": "%"},
      {"measurement": "Percentage of cells, >4N", "setting": "[2]; 24 h", "value": "3.2±0.4", "unit": "%"},
      {"measurement": "IC50", "setting": "[3]", "value": 7, "unit": "µM"},
      {"measurement": "Length of cytoplasmic part of posterolateral, anterior and caudal flagella", "setting": "[4]", "value": "None of the three flagella showed any significant change"},
      {"measurement": "Length of membrane-bound portion of posterolateral and ventral flagella", "setting": "[4]; 18 h", "value": "did not induce a significant increase"},
      {"measurement": "Length of membrane-bound part of caudal flagella", "setting": "[4]; 18 h, DMSO 7.2 μm", "value": 11.1, "unit": "µm"},
      {"measurement": "Length of membrane-bound part of anterior flagella", "setting": "[4]; 18 h, DMSO 9.0 μm", "value": 11.3, "unit": "µm"},
      {"measurement": "Percentage of cells at G2/M phase", "setting": "[1]; 5 μM GW, 6 and 12 h, control 72–73%", "value": 86, "unit": "%"}
    ]}
  ]
}
